Measured values as given in US20130096119A1, “Isoquinolin-3-Ylurea Derivatives” (priority 2010, published 2013).
≈ marks a conversion by molar mass, not a printed value.

The compounds below were run on S. pneumoniae ATCC 49619 (assay: Minimal inhibitory concentration (MIC) by microdilution method (CLSI M7-A7)). Conditions: Streptococcus pneumoniae, ATCC49619, cation-adjusted Mueller-Hinton Broth supplemented with 3% (v/v) lysed horse blood.
Assay type: cell-based, Streptococcus pneumoniae
Procedure, shortened: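 For S. pneumoniae, cation-adjusted Mueller-Hinton broth carried 3% (v/v) lysed horse blood; MICs (mg/l) were read by CLSI M7-A7 microdilution.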
Compound CCNC(=O)Nc1cc2cc(-c3cccc(C(C)=O)c3)cc(C)c2cn1 [Example 29, 1-[6-(3-acetyl-phenyl)-8-methyl-isoquinolin-3-yl]-3-ethyl-urea] has an MIC of 0.5 µg/mL (≈ 1.44 µM). Work on CCNC(=O)Nc1cc2c(F)c(-c3cccnc3)cc(-c3cccnc3)c2cn1 [Example 53, 1-ethyl-3-(5-fluoro-6,8-di-pyridin-3-yl-isoquinolin-3-yl)-urea] yielded an MIC of 8 µg/mL (≈ 20.6 µM). Work on CCNC(=O)Nc1cc2c(-c3ccc(CO)nc3)ccc(C)c2cn1 [Example 8, 1-ethyl-3-[5-(6-hydroxymethyl-pyridin-3-yl)-8-methyl-isoquinolin-3-yl]-urea] yielded an MIC of 4 µg/mL (≈ 11.9 µM). CCNC(=O)Nc1cc2cccc(Oc3cccnc3)c2cn1 [Example 147, 1-ethyl-3-[8-(pyridin-3-yloxy)-isoquinolin-3-yl]-urea] gave an MIC of 4 µg/mL (≈ 13 µM). Compound CCNC(=O)Nc1cc2cccc(Nc3ccc(O)cc3)c2cn1 [Example 175, 1-ethyl-3-[8-(4-hydroxy-phenylamino)-isoquinolin-3-yl]-urea] has an MIC of 16 µg/mL (≈ 49.6 µM). CCNC(=O)Nc1cc2cc(-c3cccc4cnccc34)cc(C)c2cn1 [Example 104, 1-ethyl-3-(8′-methyl-[5,6′]biisoquinolinyl-3′-yl)-urea] showed an MIC of 8 µg/mL (≈ 22.4 µM). CCNC(=O)Nc1cc2cc(-c3ccccc3O)cc(C)c2cn1 [Example 109, 1-ethyl-3-[6-(2-hydroxy-phenyl)-8-methyl-isoquinolin-3-yl]-urea] was tested, and the MIC was 2 µg/mL (≈ 6.22 µM). CCNC(=O)Nc1cc2c(-c3ccncc3)ccc(Oc3cccnc3)c2cn1 [Example 222, 1-ethyl-3-[5-pyridin-4-yl-8-(pyridin-3-yloxy)-isoquinolin-3-yl]-urea] was tested, and the MIC was 1 µg/mL (≈ 2.59 µM). Compound CCNC(=O)Nc1cc2c(-c3ccc(C(=O)N(C)C)cc3)ccc(C)c2cn1 [Example 5, 4-[3-(3-ethyl-ureido)-8-methyl-isoquinolin-5-yl]-N,N-dimethyl-benzamide] has an MIC of 1 µg/mL (≈ 2.66 µM). Work on CCNC(=O)Nc1cc2c(NCC)ccc(C)c2cn1 [Example 63, 1-ethyl-3-(5-ethylamino-8-methyl-isoquinolin-3-yl)-urea] yielded an MIC of 2 µg/mL (≈ 7.34 µM). With CCNC(=O)Nc1cc2cc(N)cc(C)c2cn1 [Example 54, 1-(6-amino-8-methyl-isoquinolin-3-yl)-3-ethyl-urea] the MIC was 16 µg/mL (≈ 65.5 µM). CCNC(=O)Nc1cc2c(-c3cccnc3)ccc(Nc3cccnc3)c2cn1 [Example 224, 1-ethyl-3-[5-pyridin-3-yl-8-(pyridin-3-ylamino)-isoquinolin-3-yl]-urea] showed an MIC of 0.5 µg/mL (≈ 1.3 µM). Work on CCNC(=O)Nc1cc2cccc(Cn3ccnc3)c2cn1 [Example 299, 1-ethyl-3-(8-imidazol-1-ylmethyl-isoquinolin-3-yl)-urea] yielded an MIC of 4 µg/mL (≈ 13.5 µM). CCNC(=O)Nc1cc2c(-c3ccncc3)ccc(Nc3cccc(C)n3)c2cn1 [Example 219, 1-ethyl-3-[8-(6-methyl-pyridin-2-ylamino)-5-pyridin-4-yl-isoquinolin-3-yl]-urea] was tested, and the MIC was 0.25 µg/mL (≈ 0.627 µM). Work on CCNC(=O)Nc1cc2cccc(Nc3ccncc3)c2cn1 [Example 153, 1-ethyl-3-[8-(pyridin-4-ylamino)-isoquinolin-3-yl]-urea] yielded an MIC of 8 µg/mL (≈ 26 µM). Compound CCNC(=O)Nc1cc2cccc(Nc3cccc(C(=O)OC)c3)c2cn1 [Example 176, 3-[3-(3-ethyl-ureido)-isoquinolin-8-ylamino]-benzoic acid methyl ester] has an MIC of 2 µg/mL (≈ 5.49 µM). With CCNC(=O)Nc1cc2cc(NC(=O)c3cccnc3)cc(C)c2cn1 [Example 119, N-[3-(3-ethyl-ureido)-8-methyl-isoquinolin-6-yl]nicotinamide] the MIC was 0.25 µg/mL (≈ 0.716 µM). For CCNC(=O)Nc1cc2cc(-c3cccc(C(=O)OCC)c3)cc(C)c2cn1 [Example 84, 3-[3-(3-ethyl-ureido)-8-methyl-isoquinolin-6-yl]-benzoic acid ethyl ester], the MIC was 0.5 µg/mL (≈ 1.32 µM). CCNC(=O)Nc1cc2cc(NC(=O)c3ccccc3)ccc2cn1 [Example 52, N-[3-(3-ethyl-ureido)-isoquinolin-6-yl]-benzamide] was tested, and the MIC was 2 µg/mL (≈ 5.98 µM). For CCNC(=O)Nc1cc2c(F)ccc(Br)c2cn1 [Example 32, 1-(8-bromo-5-fluoro-isoquinolin-3-yl)-3-ethyl-urea], the MIC was 16 µg/mL (≈ 51.3 µM). CCNC(=O)Nc1cc2c(F)c(NCc3ccccc3)cc(Nc3cccnc3)c2cn1 [Example 240, 1-[6-benzylamino-5-fluoro-8-(pyridin-3-ylamino)-isoquinolin-3-yl]-3-ethyl-urea] gave an MIC of 2 µg/mL (≈ 4.65 µM). CCNC(=O)Nc1cc2cc(-c3ccc(C(C)=O)cc3)cc(C)c2cn1 [Example 108, 1-[6-(4-acetyl-phenyl)-8-methyl-isoquinolin-3-yl]-3-ethyl-urea] was tested, and the MIC was 0.5 µg/mL (≈ 1.44 µM). With CCNC(=O)Nc1cc2cccc(Nc3cccc(C(=O)N(C)C)c3)c2cn1.Cl [Example 199, 3-[3-(3-ethyl-ureido)-isoquinolin-8-ylamino]-N,N-dimethyl-benzamide hydrochloride] the MIC was 1 µg/mL. With CCNC(=O)Nc1cc2c(-c3cscn3)ccc(C)c2cn1.Cl [Example 285, 1-ethyl-3-(8-methyl-5-thiazol-4-yl-isoquinolin-3-yl)-urea hydrochloride] the MIC was 2 µg/mL. CCNC(=O)Nc1cc2c(-c3cscn3)ccc(Nc3cccc(OC)n3)c2cn1 [Example 290, 1-ethyl-3-[8-(6-methoxy-pyridin-2-ylamino)-5-thiazol-4-yl-isoquinolin-3-yl]-urea] was tested, and the MIC was 0.5 µg/mL (≈ 1.19 µM). Compound CCNC(=O)Nc1cc2cccc(Nc3ccc(C(=O)N(C)C)cc3)c2cn1.Cl [Example 203, 4-[3-(3-ethyl-ureido)-isoquinolin-8-ylamino]-N,N-dimethyl-benzamide hydrochloride] has an MIC of 2 µg/mL. CCNC(=O)Nc1cc2cc(-c3ccc(C(N)=O)cc3)cc(C)c2cn1 [Example 30, 4-[3-(3-ethyl-ureido)-8-methyl-isoquinolin-6-yl]-benzamide] gave an MIC of 1 µg/mL (≈ 2.87 µM). For C=Cc1ccc(-c2ccncc2)c2cc(NC(=O)NCC)ncc12 [Example 140, 1-ethyl-3-[5-(pyridin-4-yl)-8-vinylisoquinolin-3-yl]-urea], the MIC was 2 µg/mL (≈ 6.28 µM). For CCNC(=O)Nc1cc2c(F)c(-c3cnc4ccccc4c3)cc(-c3cnc4ccccc4c3)c2cn1 [Example 112, 1-ethyl-3-(5-fluoro-6,8-di-quinolin-3-yl-isoquinolin-3-yl)-urea], the MIC was 0.5 µg/mL (≈ 1.03 µM). With CCNC(=O)Nc1cc2cc(-c3cncc(C(=O)OC)c3)cc(C)c2cn1 [Example 87, 5-[3-(3-ethyl-ureido)-8-methyl-isoquinolin-6-yl]-nicotinic acid methyl ester] the MIC was 8 µg/mL (≈ 22 µM). CCNC(=O)Nc1cc2c(-c3ccccc3O)ccc(C)c2cn1 [Example 3, 1-ethyl-3-[5-(2-hydroxy-phenyl)-8-methyl-isoquinolin-3-yl]-urea] gave an MIC of 1 µg/mL (≈ 3.11 µM). CCNC(=O)Nc1cc2c(-c3ccncc3)ccc(Nc3ccc(C)nc3)c2cn1 [Example 218, 1-ethyl-3-[8-(6-methyl-pyridin-3-ylamino)-5-pyridin-4-yl-isoquinolin-3-yl]-urea] was tested, and the MIC was 1 µg/mL (≈ 2.51 µM). Compound CCNC(=O)Nc1cc2cc(NCc3ccc(C(=O)O)cc3)cc(C)c2cn1 [Example 127, 4-{[3-(3-ethyl-ureido)-8-methyl-isoquinolin-6-ylamino]-methyl}-benzoic acid] has an MIC of 16 µg/mL (≈ 42.3 µM). CCNC(=O)Nc1cc2cccc(Nc3ccc(C(=O)OC)cc3)c2cn1 [Example 179, 4-[3-(3-ethyl-ureido)-isoquinolin-8-ylamino]-benzoic acid methyl ester] showed an MIC of 4 µg/mL (≈ 11 µM). CCNC(=O)Nc1cc2cccc(Nc3ccccn3)c2cn1 [Example 146, 1-ethyl-3-[8-(pyridin-2-ylamino)-isoquinolin-3-yl]-urea] gave an MIC of 4 µg/mL (≈ 13 µM). With CCNC(=O)Nc1cc2cccc(Nc3cncc(F)c3)c2cn1.Cl [Example 159, 1-ethyl-3-[8-(5-fluoro-pyridin-3-ylamino)-isoquinolin-3-yl]-urea hydrochloride] the MIC was 2 µg/mL. In the case of CCNC(=O)Nc1cc2c(-c3ccc(C(=O)O)cc3)cccc2cn1 [Example 124, 4-[3-(3-ethyl-ureido)-isoquinolin-5-yl]-benzoic acid], the MIC is reported as 4 µg/mL (≈ 11.9 µM). CCNC(=O)Nc1cc2cc(-c3cccc(CO)c3)cc(C)c2cn1 [Example 19, 1-ethyl-3-[6-(3-hydroxymethyl-phenyl)-8-methyl-isoquinolin-3-yl]-urea] was tested, and the MIC was 1 µg/mL (≈ 2.98 µM). CCNC(=O)Nc1cc2cccc(Nc3ccc(C)nc3)c2cn1.Cl [Example 164, 1-ethyl-3-[8-(6-methyl-pyridin-3-ylamino)-isoquinolin-3-yl]-urea hydrochloride] was tested, and the MIC was 2 µg/mL. CCNC(=O)Nc1cc2c(-c3ccnc(C)c3)ccc(Nc3cccc(C(=O)N(C)C)c3)c2cn1 [Example 248, 3-[3-(3-ethyl-ureido)-5-(2-methyl-pyridin-4-yl)-isoquinolin-8-ylamino]-N,N-dimethyl-benzamide] gave an MIC of 0.5 µg/mL (≈ 1.07 µM). Compound CCNC(=O)Nc1cc2cccc(NC(=O)c3ccc[nH]3)c2cn1.Cl [Example 182, 1H-pyrrole-2-carboxylic acid [3-(3-ethyl-ureido)-isoquinolin-8-yl]-amide hydrochloride] has an MIC of 2 µg/mL. For CCNC(=O)Nc1cc2c(-c3ccc(CO)cc3)ccc(Nc3cccc(C(=O)NC)c3)c2cn1 [Example 250, 3-[3-(3-ethyl-ureido)-5-(4-hydroxymethyl-phenyl)-isoquinolin-8-ylamino]-N-methyl-benzamide], the MIC was 1 µg/mL (≈ 2.13 µM). For CCNC(=O)Nc1cc2cc(NCc3ccccc3)cc(Nc3cccnc3)c2cn1 [Example 239, 1-[6-benzylamino-8-(pyridin-3-ylamino)-isoquinolin-3-yl]-3-ethyl-urea], the MIC was 0.5 µg/mL (≈ 1.21 µM). In the case of CCNC(=O)Nc1cc2cccc(Nc3cccc(C(=O)OC)n3)c2cn1.Cl [Example 166, 6-[3-(3-ethyl-ureido)-isoquinolin-8-ylamino]-pyridine-2-carboxylic acid methyl ester hydrochloride], the MIC is reported as 8 µg/mL. CCNC(=O)Nc1cc2c(-c3ccnc(C)c3)ccc(Nc3cccc(C(=O)NC)c3)c2cn1 [Example 247, 3-[3-(3-ethyl-ureido)-5-(2-methyl-pyridin-4-yl)-isoquinolin-8-ylamino]-N-methyl-benzamide] gave an MIC of 0.25 µg/mL (≈ 0.55 µM). CCNC(=O)Nc1cc2cc(-c3ccco3)cc(C)c2cn1 [Example 78, 1-ethyl-3-(6-furan-2-yl-8-methyl-isoquinolin-3-yl)-urea] was tested, and the MIC was 2 µg/mL (≈ 6.77 µM).
